Results from patent US20090172826A1, “Model System for TCR (ZETA) Chain Downregulation” (priority 2003, published 2009).

Legend:
splenic T cells [1] = experiment: BrdU incorporation in Thy1.2+ splenic T cells from treated mice after ex vivo activation; set-up: species or system mouse; conditions: for percentage of BrdU+ T cells of total T cells: BALB/c mice
TCR ζ chain [2] = experiment: TCR ζ chain expression in T cells of antigen-treated mice (immunoblot, FACS, confocal); assay type: in vivo, mouse; conditions: full repeated-injection regimen, wild-type mice, versus control mice
splenic T cells [3] = experiment: CFSE division of splenic T cells from treated mice after ex vivo activation; assay type: in vivo, mouse; conditions: BALB/c mice
[4] = tested on: splenocytes isolated from P. gingivalis-treated mice; assay type: cell-based, mouse; conditions: NH4Cl 20 mM 20 h or bafilomycin A1 5 h at 37° C.
TCR ζ chain [5] = experiment: In vitro incubation of isolated T cells and non-T cells with IFN-γ or anti-IFN-γ, ζ chain FACS; assay type: cell-based, mouse; conditions: IFN-γ 50 U/ml, 24 h, with or without control non-T cells
Experimental: T cells alone or mixed with the indicated non-T cell populations were incubated in vitro for 24 h in the presence or absence of IFN-γ (50 U/ml). Cells were stained for cell surface Thy 1.2 and for total ζ chain expression, as described in FIG. 1A-F, and ζ chain expression is shown.
To examine whether IFN-γ directly or indirectly affects all T cell populations in the spleen, T cells from control mice were exposed to IFN-γ in the presence or absence of control non-T cell populations in vitro.

[6] = Specific serum IgG1 and IgG2a antibodies by ELISA; assay type: in vivo, mouse; conditions: serum at day +9
Excerpt: FIG. 6A: To determine the type of response, mice were bled at day +9 of the experiment and the titer and isotype of the specific antibodies was established by ELISA. Endpoint titers are expressed as the reciprocal values of the last dilution with an OD of 0.1 at 405 nm above maximal absorbance values of samples collected from non-immunized mice.
(§1) Serum samples were collected at day +9 of the experiment and analyzed by ELISA for the levels of P.g.- or OVA-specific IgG1 and IgG2a antibodies as previously described [Houri-Haddad et al. (2000) id ibid.]. IFN-γ and IL-10 concentrations in the chamber exudates were determined at 4 and 24 h, respectively after the third P.g. injection by two-site ELISA [Frolov, I. et al. (1998) Immunology 93, 323-8].

IFN-γ = IFN-γ in chamber exudates by ELISA; assay type: in vivo, mouse; conditions: 4 h after the third injection
Experimental: (§2) The results are presented as the mean value of the individual mice in each treatment group. (n.d.) not detectable values of IFN-γ in the OVA-treated mice.
as §1

splenocytes = experiment: Mitogen-induced splenocyte proliferation, 3H-thymidine uptake; assay type: in vivo, mouse; conditions: percent of response in control mice, FIG. 6c
Experimental: For mitogen-induced cell proliferation [Leshem, B. et al. (1999) J Immunol Methods 223, 249-54], splenocytes (2×10^6 cells/ml) were cultured in the presence of anti-CD3ε (145-2C11), 2.5 μg/ml concanavalin A (Con A, Biomakor, Israel), 2 ng/ml phorbol 12-myristatel3-acetate (PMA, Sigma) combined with 0.2 μM calcium ionophore (Sigma), or in medium alone. Following 48 h of incubation at 37° C., 1 μCi of [^3H]-thymidine was added to each well. Cells were harvested 8 h later using a Tomtec (USA) cell harvester and counted in a MicroBeta scintillation counter (Wallac, Finland).

IL-10 = IL-10 in chamber exudates by ELISA; assay type: in vivo, mouse; conditions: 24 h after the third injection; P. gingivalis- versus OVA-treated mice
Experimental: as §2, §1

[7] = activation with PMA and ionophore
[8] = activation with anti-CD3 and anti-CD28
[9] = anti-CD3 and anti-CD28, 60 hours

| Molecule | percentage of BrdU+ T cells of total T cells (splenic T cells [1]; activation with ConA) [%] | percentage of BrdU+ T cells of total T cells (splenic T cells [1]; [7]) [%] | percentage of BrdU+ T cells of total T cells (splenic T cells [1]; [8]) [%] | ζ chain expression in splenocytes / splenic T cells (TCR ζ chain [2]) | percentage of CFSE-labeled splenic T cells which divided 1-5 times (splenic T cells [3]; PMA and ionophore, 60 hours) [%] | percentage of CFSE-labeled splenic T cells which divided 1-5 times (splenic T cells [3]; [9]) [%] | ζ protein expression after incubation with lysosome inhibitor [4] | also measured |
| --- | --- | --- | --- | --- | --- | --- | --- | --- |
| 5′-TGACTGTGAACGTTCGAGATGA-3′ [CpG-ODNs] | 39 | 80 | 9 | significant ζ chain down-regulation | 57 | 6 |  | T cell proliferation by BrdU incorporation (splenic T cells [1]; TCR-mediated stimuli (anti-CD3, Con A), compared to controls): significantly lower response |
| 5′-TGACTGTGAAGGTTGGAGATGA-3′ (listed as DNA, chemistry not given here) [mutated CpG-ODNs, ID; NO.2] | 83 | 57 | 71 |  | 80 | 84 |  |  |
| Cl.N [NH4Cl] |  |  |  |  |  |  | largely restored ζ protein expression |  |
| CO/C1=C\C(C)=C\[C@@H](C)[C@@H](O)[C@@H](C)C/C(C)=C/C=C/[C@H](OC)[C@@H]([C@@H](C)[C@@H](O)[C@H](C)[C@@]2(O)C[C@@H](O)[C@H](C)[C@@H](C(C)C)O2)OC1=O [bafilomycin A] |  |  |  |  |  |  | largely restored ζ protein expression |  |
| IFN-γ |  |  |  |  |  |  |  | ζ chain expression in control T cells exposed in vitro (TCR ζ chain [5]): did not affect ζ chain expression |
| OVA: chicken ovalbumin adsorbed to Al(OH)3 (Alum), then in PBS; elicits a TH2 response (protein, UniProt P01012 2-386, looked up, adsorbed to alum, chicken ovalbumin adsorbed to Al(OH)3 (Alum), then in PBS; elicits a TH2 response) Ovalbumin: GSIGAASMEFCFDVFKELKVHHANENIFYCPIAIMSALAMVYLGAKDSTRTQINKVVRFDKLPGFGDSIEAQCGTSVNVHSSLRDILNQITKPNDVYSFSLASRLYAEERYPILPEYLQCVKELYRGGLEPINFQTAADQARELINSWVESQTNGIIRNVLQPSSVDSQTAMVLVNAIVFKGLWEKAFKDEDTQAMPFRVTEQESKPVQMMYQIGLFRVASMASEKMKILELPFASGTMSMLVLLPDEVSGLEQLESIINFEKLTEWTSSNVMEERKIKVYLPRMKMEEKYNLTSVLMAMGITDVFSSSANLSGISSAESLKISQAVHAAHAEINEAGREVVGSAEAGVDAASVSEEFRADHPFLFCIKHIATNAVLFFGRCVSP |  |  |  | did not induce profound ζ downregulation |  |  |  | specific serum antibodies, IgG1 and IgG2a isotype [6]: of the IgG1 isotype and not of the IgG2a isotype; IFN-γ concentration in chamber exudates (IFN-γ): practically undetectable; function (proliferative response) of T cells in the spleen (splenocytes): normal function; IL-10 concentration in chamber exudates (IL-10): no great difference |
